The results in this text go back to patent US5627203A, “Tricyclic oxime ethers” (Adir et Compagnie, priority 1994, dated 1997).

What is called IC50 is the midpoint of a concentration-inhibition curve.

Common to all, as to format: binding
The target in one assay is T1, 5-HT3 receptors (Rattus norvegicus, UniProt P35563).
T1 construct: rat area postrema homogenates; from tissue; host or cells: rat area postrema
T1 sequence (P35563 24-483): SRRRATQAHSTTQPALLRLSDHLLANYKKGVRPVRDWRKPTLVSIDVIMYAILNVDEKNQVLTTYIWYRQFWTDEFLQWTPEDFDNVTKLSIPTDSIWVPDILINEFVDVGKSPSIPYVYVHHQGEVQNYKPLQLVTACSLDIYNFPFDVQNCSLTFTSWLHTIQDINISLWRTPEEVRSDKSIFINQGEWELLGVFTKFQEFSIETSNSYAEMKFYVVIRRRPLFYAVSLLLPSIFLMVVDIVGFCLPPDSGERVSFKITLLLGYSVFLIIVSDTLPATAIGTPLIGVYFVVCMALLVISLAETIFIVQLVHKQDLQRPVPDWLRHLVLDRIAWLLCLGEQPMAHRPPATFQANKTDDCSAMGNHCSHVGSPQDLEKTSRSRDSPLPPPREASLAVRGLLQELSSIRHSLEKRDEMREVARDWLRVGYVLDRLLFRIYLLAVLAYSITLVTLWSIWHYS
Description: Displacement of 3H-zacopride at 5-HT3 receptors. The settings on record: 0.3-0.4 nM 3H-zacopride, rat area postrema homogenates, pH 7.4, 25° C., 30 minutes. The procedure: A-1: Study of the binding of the compounds of the invention to 5-HT3 serotoninergic receptors
The binding of the compounds of the invention to 5-HT3 receptors was determined for each compound by measuring the displacement of ^3 H-zacopride (specific ligand for 5-HT3 receptors) in rat area postrema homogenates.
Aliquot amounts (50-100 μl) of a membrane suspension (2.5-5.0 mg of protein/cm^3) are incubated for 30 minutes at 25° C. in a Tris-HCl buffer, 25 mM, pH 7,4, in the presence of 0.3-0.4 nM 3^H -zacopride (83 ci/mmol) (total volume: 0.5 cm^3). The incubation is terminated by filtering the samples through Whatman GF/B filters which are then washed and dried. The radioactivity retained on the filters is finally calculated by spectrometry in liquid medium (Aquasol). The non-specific binding is evaluated under the same conditions using samples containing in addition 1 μM of ondansetron (5-HT3 antagonist). The displacement curves obtained by adding increasing concentrations of a test compound to the incubation medium are analysed to determine the affinity of the test compounds for 5-HT3 receptors.
For orientation: Displacement assays read how much labelled ligand stays bound in the presence of the test substance.

The target in another assay is T2, 5-HT2C receptors (Rattus norvegicus, UniProt P08909).
T2 construct: rat frontal cortex and hippocampus homogenates; from tissue; host or cells: rat frontal cortex and hippocampus
T2 sequence (P08909 33-460): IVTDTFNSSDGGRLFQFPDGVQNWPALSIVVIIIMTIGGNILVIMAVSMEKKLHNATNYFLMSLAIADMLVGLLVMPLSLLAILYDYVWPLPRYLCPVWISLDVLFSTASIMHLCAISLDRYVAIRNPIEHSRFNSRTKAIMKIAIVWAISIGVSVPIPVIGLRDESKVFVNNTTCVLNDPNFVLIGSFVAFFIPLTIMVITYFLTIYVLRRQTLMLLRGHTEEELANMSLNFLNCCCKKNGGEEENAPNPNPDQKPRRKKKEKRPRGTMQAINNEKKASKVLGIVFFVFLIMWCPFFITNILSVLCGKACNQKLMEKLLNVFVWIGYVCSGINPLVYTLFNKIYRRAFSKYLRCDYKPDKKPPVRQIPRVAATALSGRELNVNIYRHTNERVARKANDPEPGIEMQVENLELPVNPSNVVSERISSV
Description: Displacement of N-methylmesulergine at 5-HT2C receptors. The settings on record: rat frontal cortex and hippocampus homogenates. The procedure:
(§1) A-2: Study of the binding of the compounds of the invention to the serotonin reuptake site as well as to 5-HT1, 5-HT1A, 5-HT1B, 5-HT1D, 5-HT2, 5-HT2C, 5-HT4 serotoninergic receptors.
(§2) The binding of the compounds of the invention is measured in accordance with conventional methods.
for 5-HT2C receptors, by the displacement of N-methylmesulergine in rat frontal cortex and hippocampus homogenates, […]

For the next assay, the target named is 5-HT1 receptors. The experiment in a line: Displacement of 5-OH tryptamine at 5-HT1 receptors. The conditions noted are these: pig frontal cortex and striatum. The procedure: as §1, §2
for 5-HT1 receptors, by the displacement of 5-OH tryptamine in pig frontal cortex and striatum, […]

A further assay has as its target T3, serotonin reuptake site (Rattus norvegicus, UniProt P31652).
T3 construct: rat brain from which the cerebellum has been removed; from tissue; host or cells: rat brain without cerebellum
The experiment in a line: Displacement of 3H-paroxetine at the serotonin reuptake site. The settings on record: rat brain without cerebellum, read-out: IC50, serotonin reuptake sites. As for the experimental part: as §1, §2
for the serotonin reuptake site, by the displacement of ^3 H-paroxetinein rat brain from which the cerebellum has been removed, […]

The target in another assay is 5-HT1D receptors. Description: Displacement of 5-OH-tryptamine at 5-HT1D receptors. The conditions noted are these: rat cortex, striatum and globus pallidus homogenates. The procedure: as §1, §2
for 5-HT1D receptors, by the displacement of 5-OH-tryptamine in rat cortex, striatum and globus pallidus homogenates, […]

Another assay addresses T4, 5-HT1B receptors (Rattus norvegicus, UniProt P28564).
T4 construct: rat cortex, striatum, and globus pallidus homogenates; from tissue; host or cells: rat cortex, striatum and globus pallidus
The experiment in a line: Displacement of 5-hydroxytryptamine at 5-HT1B receptors. The conditions noted are these: rat cortex, striatum, and globus pallidus homogenates. As for the experimental part: as §1, §2
for 5-HT1B receptors, by the displacement of 5-hydroxytryptamine in rat cortex, striatum, and globus pallidus homogenates, […]

For the next assay, the target named is T5, 5-HT2 receptors (Rattus norvegicus, UniProt P14842).
T5 construct: rat frontal cortex homogenates; from tissue; host or cells: rat frontal cortex
T5 sequence (P14842 whole entry): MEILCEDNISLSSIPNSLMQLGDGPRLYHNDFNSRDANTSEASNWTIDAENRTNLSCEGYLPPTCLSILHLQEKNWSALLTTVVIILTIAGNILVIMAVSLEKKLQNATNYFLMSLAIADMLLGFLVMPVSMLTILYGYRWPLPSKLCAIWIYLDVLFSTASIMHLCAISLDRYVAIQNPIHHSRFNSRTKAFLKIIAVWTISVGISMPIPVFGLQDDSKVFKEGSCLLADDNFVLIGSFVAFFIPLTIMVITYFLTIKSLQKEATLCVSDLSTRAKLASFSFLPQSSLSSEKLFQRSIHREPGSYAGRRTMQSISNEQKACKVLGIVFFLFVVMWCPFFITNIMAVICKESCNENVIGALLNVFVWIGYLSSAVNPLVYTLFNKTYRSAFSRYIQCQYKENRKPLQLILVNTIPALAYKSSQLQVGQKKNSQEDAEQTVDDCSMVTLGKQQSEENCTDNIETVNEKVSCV
Description: Displacement of aminoiodoketaneserine at 5-HT2 receptors. The settings on record: rat frontal cortex homogenates. As for the experimental part: as §1, §2
for 5-HT2 receptors, by the displacement of aminoiodoketaneserine in rat frontal cortex homogenates, […]

Another assay has as its target T6, 5-HT1A receptors (Rattus norvegicus, UniProt P19327).
T6 construct: rat hippocampus homogenates; from tissue; host or cells: rat hippocampus
T6 sequence (P19327 1-422): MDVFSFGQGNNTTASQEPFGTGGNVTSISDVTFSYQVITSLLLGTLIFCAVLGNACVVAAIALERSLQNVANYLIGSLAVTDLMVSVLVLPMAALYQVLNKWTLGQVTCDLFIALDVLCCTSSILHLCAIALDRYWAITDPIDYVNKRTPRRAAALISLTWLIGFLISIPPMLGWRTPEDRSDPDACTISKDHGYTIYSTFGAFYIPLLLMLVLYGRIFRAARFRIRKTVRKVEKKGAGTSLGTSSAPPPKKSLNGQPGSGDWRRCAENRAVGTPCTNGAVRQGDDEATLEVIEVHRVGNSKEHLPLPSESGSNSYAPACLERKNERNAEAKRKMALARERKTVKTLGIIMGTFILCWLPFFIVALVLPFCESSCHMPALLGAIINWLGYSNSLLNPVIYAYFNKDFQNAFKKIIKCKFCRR
The experiment in a line: Displacement of 8-OH-DPAT at 5-HT1A receptors. The settings on record: rat hippocampus homogenates. As for the experimental part:
as §1, §2
for 5-HT1A receptors, by the displacement of 8-OH-DPAT in rat hippocampus homogenates, […]

T3 sequence (P31652 whole entry): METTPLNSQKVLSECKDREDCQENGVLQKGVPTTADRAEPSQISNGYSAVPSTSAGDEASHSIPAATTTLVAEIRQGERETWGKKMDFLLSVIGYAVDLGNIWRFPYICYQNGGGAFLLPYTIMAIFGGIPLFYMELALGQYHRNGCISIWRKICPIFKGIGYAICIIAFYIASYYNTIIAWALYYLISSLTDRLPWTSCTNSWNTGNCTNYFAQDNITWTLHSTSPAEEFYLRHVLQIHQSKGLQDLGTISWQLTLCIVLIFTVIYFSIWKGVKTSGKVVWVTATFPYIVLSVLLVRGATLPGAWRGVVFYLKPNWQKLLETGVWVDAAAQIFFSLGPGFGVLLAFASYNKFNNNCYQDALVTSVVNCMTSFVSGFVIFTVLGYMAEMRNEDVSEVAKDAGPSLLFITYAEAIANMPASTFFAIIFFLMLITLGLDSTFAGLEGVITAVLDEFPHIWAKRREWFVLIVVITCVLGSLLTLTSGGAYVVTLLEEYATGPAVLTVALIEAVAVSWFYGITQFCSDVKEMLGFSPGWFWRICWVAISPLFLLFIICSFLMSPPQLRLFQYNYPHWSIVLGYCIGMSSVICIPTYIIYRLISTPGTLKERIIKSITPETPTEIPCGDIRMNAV
T4 sequence (P28564 whole entry): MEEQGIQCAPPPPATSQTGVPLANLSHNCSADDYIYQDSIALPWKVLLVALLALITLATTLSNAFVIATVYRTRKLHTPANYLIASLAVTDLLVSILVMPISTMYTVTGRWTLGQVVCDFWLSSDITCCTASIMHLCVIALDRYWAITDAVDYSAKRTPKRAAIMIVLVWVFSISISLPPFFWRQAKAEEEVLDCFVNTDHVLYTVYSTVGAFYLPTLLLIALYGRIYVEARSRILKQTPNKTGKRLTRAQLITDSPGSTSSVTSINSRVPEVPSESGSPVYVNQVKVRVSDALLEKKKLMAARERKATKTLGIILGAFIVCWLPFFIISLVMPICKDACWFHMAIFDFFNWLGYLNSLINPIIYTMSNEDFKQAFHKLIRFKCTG

Regarding `Cc1ccc2c(c1)C(=NOCC(C)N(C)C)c1cccn1-2` (centres unmarked) [Example 52], the IC50 on 5-HT3 receptors was found to be 0.044 µM; at 5-HT2C receptors, 2.3 µM; on 5-HT1 receptors it was 2 µM; on serotonin reuptake site, 13 µM; at 5-HT1D receptors it was 0.81 µM; at 5-HT1B receptors, 3.8 µM. For the same compound, the figures for the IC50 at 5-HT2 receptors and at 5-HT1A receptors were 8.4 µM and 3.3 µM, respectively.
For the compound `CN(C)CCON=C1c2sccc2-n2cccc21` [Example 4], the IC50 on 5-HT2C receptors is 0.82 µM; at 5-HT1 receptors, 0.55 µM; at serotonin reuptake site, 0.89 µM; at 5-HT1D receptors, 0.41 µM; at 5-HT1B receptors, 0.61 µM; on 5-HT2 receptors it was 5 µM. The compound further displayed a half-inhibitory concentration (IC50) at 5-HT1A receptors of 0.48 µM.
`CN(C)CCON=C1c2ccccc2-n2cccc21` [Example 54]: the IC50 at 5-HT2C receptors was determined as 1.4 µM; at 5-HT1 receptors, 0.14 µM; on serotonin reuptake site it was 0.93 µM; at 5-HT1D receptors, 0.69 µM; at 5-HT1B receptors it was 1.1 µM; on 5-HT2 receptors, 14 µM. The IC50 at 5-HT1A receptors came to 1.1 µM.
Take `CCN(CC)CCON=C1c2scc(C)c2-n2cccc21` [Example 15]: the concentration for half-maximal inhibition (IC50) was 0.005 µM at 5-HT3 receptors; 0.84 µM at 5-HT2C receptors; 11 µM on 5-HT1 receptors; 0.13 µM on serotonin reuptake site; 4 µM on 5-HT1D receptors; 6.4 µM on 5-HT1B receptors. In addition, the figures for the 50% inhibitory concentration (IC50) on 5-HT2 receptors and at 5-HT1A receptors were 13 µM and 21 µM, respectively.
`Cc1csc2c1-n1cccc1C2=NOCCN1CCCCC1` [Example 18]: the IC50 was found to be 0.004 µM on 5-HT3 receptors; 1.2 µM at 5-HT2C receptors; 5.1 µM at 5-HT1 receptors; 0.26 µM on serotonin reuptake site; 7.5 µM at 5-HT1D receptors; 14 µM on 5-HT1B receptors. The IC50 came out at 5.2 µM on 5-HT2 receptors and 5.7 µM at 5-HT1A receptors.
Consider `Cc1csc2c1-n1cccc1C2=NOCCN1CCCC1` [Example 17], for which the IC50 on 5-HT3 receptors was found to be 0.002 µM; on 5-HT2C receptors it was 0.71 µM; at 5-HT1 receptors, 3 µM; at serotonin reuptake site, 0.3 µM; on 5-HT1D receptors, 3.2 µM; at 5-HT1B receptors, 3.6 µM. Also, the IC50 on 5-HT2 receptors is 3.7 µM; at 5-HT1A receptors it was 1.6 µM.
In the case of `Cc1ccc2c(c1)C(=NOCCC1CCCN1C)c1cccn1-2` (centres unmarked) [Example 53], the IC50 was 0.037 µM on 5-HT3 receptors; 6 µM on 5-HT2C receptors; 8.3 µM on 5-HT1 receptors; 24 µM on serotonin reuptake site; 5.5 µM at 5-HT1D receptors; 35 µM on 5-HT1B receptors. The IC50 was 22 µM on 5-HT2 receptors and 14 µM at 5-HT1A receptors.
As to `Cc1csc2c1-n1cccc1/C2=N/OCCN` [Example 40, (Z)-3-Methyl-8-[(2-amino-ethoxy)imino]thieno[2,3-d]pyrrolo[1,2-a]pyrrole], the IC50 at 5-HT2C receptors was 0.18 µM; on 5-HT1 receptors, 0.9 µM; on serotonin reuptake site, 0.58 µM; at 5-HT1D receptors, 2.7 µM; on 5-HT1B receptors, 0.92 µM; on 5-HT2 receptors, 15 µM. The compound further had an IC50 on 5-HT1A receptors of 3.1 µM.
Turning to `Cc1csc2c1-n1cccc1/C2=N/OCC(C)CN(C)C` (centres unmarked) [Example 23], the IC50 on 5-HT3 receptors turned out to be 0.0054 µM; on 5-HT2C receptors, 2 µM; at 5-HT1 receptors it was 9.6 µM; on serotonin reuptake site it was 5 µM; at 5-HT1D receptors it was 11 µM; at 5-HT1B receptors it was 24 µM. Further, the IC50 at 5-HT2 receptors came to 14 µM; at 5-HT1A receptors, 52 µM.
With `CN1CCCC1CON=C1c2sccc2-n2cccc21` (racemic) [Example 13], the IC50 turned out to be 0.002 µM on 5-HT3 receptors; 1 µM on 5-HT2C receptors; 16 µM at 5-HT1 receptors; 0.6 µM on serotonin reuptake site; 11 µM at 5-HT1D receptors; 31 µM at 5-HT1B receptors. For the same compound, the half-inhibitory concentration (IC50) at 5-HT2 receptors was 14 µM; on 5-HT1A receptors, more than 100 µM.
On to `CN(C)CCON=C1c2cc(Cl)ccc2-n2cccc21` [Example 49, 7-Chloro-9-{[2-(N,N-dimethylamino)ethoxy]imino}pyrrolo[1,2-a]indole], for which the 50% inhibitory concentration (IC50) on 5-HT3 receptors came out at 0.086 µM; at 5-HT2C receptors it was 11 µM; at 5-HT1 receptors, 2.4 µM; on serotonin reuptake site, 12 µM; on 5-HT1D receptors it was 3.1 µM; at 5-HT1B receptors it was 1.4 µM. Also, the half-inhibitory concentration (IC50) turned out to be 7.6 µM at 5-HT2 receptors and 21 µM at 5-HT1A receptors.
For the compound `Cc1csc2c1-n1cccc1/C2=N/OCCCN(C)C` [Example 14], the IC50 was 18 µM on 5-HT2C receptors; 11 µM at 5-HT1 receptors; 1.1 µM at serotonin reuptake site; 7 µM at 5-HT1D receptors; 32 µM on 5-HT1B receptors; 42 µM on 5-HT2 receptors. At 5-HT1A receptors, this compound had an IC50 of 22 µM.
Regarding `Cc1csc2c1-n1cccc1/C2=N/OCCNCc1ccccc1` [Example 41, (Z)-3-Methyl-8-{[2-(N-benzylamino)ethoxy]imino}thieno[2,3-d]pyrrolo[1,2-a]-pyrrole], the IC50 turned out to be 0.413 µM at 5-HT2C receptors; 2.7 µM on 5-HT1 receptors; 0.11 µM at serotonin reuptake site; 11 µM at 5-HT1D receptors; 4.4 µM on 5-HT1B receptors; 4.1 µM on 5-HT2 receptors. The compound further displayed an IC50 at 5-HT1A receptors of 9.2 µM.
`CC(CON=C1c2ccccc2-n2cccc21)N(C)C` (centres unmarked) [Example 55]: the IC50 on 5-HT3 receptors is 0.0053 µM; on 5-HT2C receptors, 4.1 µM; on 5-HT1 receptors it was 2.8 µM; at serotonin reuptake site, 0.32 µM; on 5-HT1D receptors, 1.4 µM; at 5-HT1B receptors, 4.4 µM. The IC50 is 12 µM on 5-HT2 receptors and 3.8 µM at 5-HT1A receptors.
